Measurements published in the supplement of paper PMC5579334.

Columns and labels:
[1] = test system: HS-Sch-2; assay: relative IC50 (inflection point of fitted dose-response curve, CellTiter-Glo viability, 72 h; top asymptote may be below 50% inhibition); higher = less potent
How it was run: (§1)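 MPNST cell lines and primary human Schwann cells (750–1000 cells per well) went into 384-well plates preprinted with each compound at five concentrations in 10-fold steps. Plates were incubated 72 h at 37 °C, 5% CO2. Viability was read as CellTiter-Glo ATP luminescence, scaled between vehicle and positive-control wells, with duplicates averaged where present. Percent inhibition is at the top concentration; drug sensitivity score and relative IC50 (censored at top concentration) come from four-parameter logistic fits.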

[2] = test system: ST8814; assay: as above
How it was run: as §1

[3] = test system: HSC2; assay: as above
How it was run: as §1

[4] = test system: YST-1; assay: as above
How it was run: as §1

[5] = test system: STS26T; assay: as above
How it was run: as §1

[6] = test system: S1507-2; assay: as above
How it was run: as §1

[7] = test system: S462; assay: as above
How it was run: as §1

[8] = test system: HSC1; assay: as above
How it was run: as §1

[9] = test system: ST8814; assay: relative IC50 (inflection point of fitted dose-response curve, CellTox-Green cytotoxicity, 72 h; top asymptote may be below 50%); higher = less potent
How it was run: (§2)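 MPNST cell lines and primary human Schwann cells were incubated 72 h at 37 °C in 384-well plates holding five 10-fold compound dilutions. CellTox-Green was added before seeding at a final 1:1000 dilution and reported fluorescence from DNA released by disrupted cells. Signals were scaled to vehicle and positive-control wells, and cultures failing plate quality control were dropped. Drug sensitivity score and relative IC50 come from four-parameter logistic fits, with IC50 censored at the top concentration.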

[10] = test system: HS-PSS; assay: as above
How it was run: as §2

[11] = test system: HSC2; assay: as above
How it was run: as §2

[12] = test system: STS26T; assay: as above
How it was run: as §2

[13] = test system: HSC1; assay: as above
How it was run: as §2

[14] = test system: HS-PSS; assay: relative IC50 (inflection point of fitted dose-response curve, CellTiter-Glo viability, 72 h; top asymptote may be below 50% inhibition); higher = less potent
How it was run: as §1

| Structure (SMILES) | relative IC50 [1] [nM] | relative IC50 [2] [nM] | relative IC50 [3] [nM] | relative IC50 [4] [nM] | relative IC50 [5] [nM] | relative IC50 [6] [nM] | relative IC50 [7] [nM] | relative IC50 [8] [nM] | relative IC50 [9] [nM] | relative IC50 [10] [nM] | relative IC50 [11] [nM] | relative IC50 [12] [nM] | relative IC50 [13] [nM] | relative IC50 [14] [nM] |
| --- | --- | --- | --- | --- | --- | --- | --- | --- | --- | --- | --- | --- | --- | --- |
| CO[C@@]12[C@H](COC(N)=O)C3=C(C(=O)C(C)=C(N)C3=O)N1C[C@@H]1N[C@@H]12 [Mitomycin C] | 3950 | 3760 | 3650 | 2190 | 3590 | 3790 | 3690 | 3330 | 3080 | > 10000 | 1060 | 2850 | 2870 | – |
| O=C1c2c(O)ccc(O)c2C(=O)c2c(NCCNCCO)ccc(NCCNCCO)c21 [Mitoxantrone] | 87.4 | 292 | 89.1 | 56.6 | 366 | 244 | 213 | 164 | 384 | > 1000 | > 1000 | 380 | > 1000 | 194 |
| CC/C(=C(\c1ccc(O)cc1)c1ccc(OCCN(C)C)cc1)c1ccccc1 [4-hydroxytamoxifen] | 2060 | 2390 | 2490 | 1390 | 2540 | 1470 | 1810 | 2010 | 3310 | 3410 | 2180 | 3560 | 3000 | 2320 |
| CS(=O)(=O)N1CCN(Cc2cc3nc(-c4cccc5[nH]ncc45)nc(N4CCOCC4)c3s2)CC1 [Pictilisib] | 1750 | 789 | 1550 | 445 | 310 | 128 | 1150 | 1210 | 2280 | > 10000 | > 10000 | > 10000 | > 10000 | 1110 |
| COc1cc2c(Oc3ccc(NC(=O)C4(C(=O)Nc5ccc(F)cc5)CC4)cc3F)ccnc2cc1OCCCN1CCOCC1 [Foretinib] | 378 | 142 | 256 | 275 | 209 | 138 | 257 | 238 | 288 | – | > 1000 | 311 | > 1000 | – |
| CO[C@@H](C(=O)N1Cc2[nH]nc(NC(=O)c3ccc(N4CCN(C)CC4)cc3)c2C1)c1ccccc1 [Danusertib] | 529 | 1200 | 968 | 57.8 | 1230 | 641 | 389 | 759 | 1170 | 2630 | 2390 | 744 | 2690 | 1270 |
| O=P1(N(CCCl)CCCl)NCCCO1 (stereo not drawn) [Cyclophosphamide] | > 40000 | > 40000 | > 40000 | > 40000 | > 40000 | > 40000 | > 40000 | > 40000 | > 40000 | > 40000 | > 40000 | > 40000 | > 40000 | > 40000 |
| CC(=O)c1c(C)c2cnc(Nc3ccc(N4CCNCC4)cn3)nc2n(C2CCCC2)c1=O [Palbociclib] | 1940 | 1740 | 286 | 1350 | 1340 | 987 | 855 | 268 | > 10000 | > 10000 | > 10000 | > 10000 | > 10000 | 1700 |
| CCOC(=O)CCNc1cc(N2CCc3ccccc3CC2)nc(-c2ccccn2)n1 [GSK-J4] | 4520 | 5900 | 4570 | 4300 | 5270 | 6510 | 3740 | 4680 | 15500 | 27200 | 23700 | 14800 | 23700 | 6010 |
| Cc1c2oc3c(C)ccc(C(=O)N[C@@H]4C(=O)N[C@H](C(C)C)C(=O)N5CCC[C@H]5C(=O)N(C)CC(=O)N(C)[C@@H](C(C)C)C(=O)O[C@@H]4C)c3nc-2c(C(=O)N[C@@H]2C(=O)N[C@H](C(C)C)C(=O)N3CCC[C@H]3C(=O)N(C)CC(=O)N(C)[C@@H](C(C)C)C(=O)O[C@@H]2C)c(N)c1=O [Dactinomycin] | 1.95 | 3.46 | 0.779 | 0.88 | 2.08 | 5.95 | 1.86 | 0.906 | 49.1 | 12 | 8.46 | 3.07 | 12.4 | 5.05 |
| CCn1c(-c2nonc2N)nc2cnc(Oc3cccc(NC(=O)c4ccc(OCCN5CCOCC5)cc4)c3)cc21 | 988 | 1930 | 51.4 | 618 | 775 | 1480 | 1490 | 64 | > 10000 | > 10000 | – | 322 | 2520 | 1610 |
| COc1cc([C@@H]2c3cc4c(cc3[C@@H](O[C@@H]3O[C@@H]5CO[C@@H](C)O[C@H]5[C@H](O)[C@H]3O)[C@H]3COC(=O)[C@H]23)OCO4)cc(OC)c1O [Etoposide] | 1120 | 1930 | 241 | 175 | 1210 | 1490 | 833 | 658 | 3230 | – | 1420 | 896 | 3130 | 1300 |
